Experiments:
[1] = tested on: P-gp; parameters: method as in Theravance Biopharma US, Inc., data on file; conditions: ref Theravance Biopharma US, Inc., data on file; cited from earlier work
[2] = in vivo; conditions: Sprague Dawley, rat, po
Experimental: TD-9855 Rat Administration and Sampling — Rats (n = 6/timepoint/dose level) received a single oral dose of TD-9855 (0.3, 1, 5, 10, 30, and 60mg/kg) and were euthanized by decapitation at specified time points (0.5, 2, 4, 6, and 8hr for 5mg/kg dose level; 2hr for 0.3, 1, 10, 30, and 60mg/kg dose levels) post-administration. Spinal cords were dissected for ex vivo transporter occupancy and PK assessments from the same animals. The spinal cord was harvested by hydraulic extrusion using phosphate-buffered saline, and the lumbar segment dissected and frozen on dry ice. The remaining spinal cord segments were collected and homogenized in water (25% w/w) for PK analysis. All samples were stored at -80 °C until analysis.
Rat PK/PD Modeling — PK/PD parameters were estimated by a compartmental modeling approach (WinNonlin Version 5.0.1, Pharsight Corporation). One- and two-compartment PK models with first-order absorption and elimination were evaluated. The one-compartment model was selected. The pharmacodynamic model was an effect compartment Emax model linked directly to the central PK compartment (WinNonlin PK Model 3, PD Model 101). Selection of models was based upon best fit in terms of visual inspection, Akaike Information Criteria, and weighted residual sum of squares using the Gauss-Newton minimization method. The following parameters were estimated:
k01 (hr^-1): First-order absorption rate constant.
V/F (L/kg): Volume of the central compartment divided by oral bioavailability
k10 (hr^-1): Elimination rate constant from the central compartment

[3] = biological target: T1, rat native SERT (Rattus norvegicus, UniProt P31652); test: [3H]-citalopram binding, rat cortical membranes; conditions: mean (95% CI), 3 to 9 experiments, read-out: Transporter Binding: pKi SERT (converted)
T1 construct: at human recombinant and rat native monoamine transporters; from tissue
Text: (§1) The in vitro pharmacology of TD-9855 (4-[2-(2, 4, 6-trifluorophenoxymethyl)phenyl]piperidine; Figure 1) at human recombinant and rat native monoamine transporters was characterized as described previously ([Tsuruda et al., 2010]; [Shen et al., 2013]). Radioligands were sourced commercially (Perkin Elmer Life Sciences or GE Healthcare Life Sciences). Briefly, membranes prepared from HEK293 (Human Embryonic Kidney 293) cells stably-transfected with human recombinant SERT (HEK293-hSERT), NET (HEK293-hNET), or DAT ([…]) were incubated for 1hr at 22°C in the absence, or presence, of TD-9855 and [^3H]-citalopram (1.0nM) for SERT, [^3H]-nisoxetine (2.0nM) for NET, and [^3H]-WIN35428 (3.0nM) for DAT in 50mM Tris-HCl, 120mM NaCl, 5mM KCl, 0.025% BSA, 100 μM ascorbic acid, pH 7.4. Rat cortical membrane preparations were incubated with [^3H]-citalopram (2.0nM) for SERT or [^3H]-nisoxetine (4.0nM) for NET for 1hr at 22°C. […] Binding and uptake assays were terminated by rapid filtration and radioactivity, determined by liquid scintillation spectroscopy.

[4] = human, data on file, cited from earlier work
[5] = Safety and tolerability in Phase 1 PET study; format: in vivo, human; conditions: healthy males, single oral dose 4-20mg
Experimental: All adverse events (AEs) were assessed by the investigator and recorded in the case report form, including the dates of onset and resolution, severity, relationship to study drug, outcome, and action taken with study medication after the dosing of TD-9855 through the follow-up visit. Safety was assessed during the entire study by measurement of vital signs, laboratory tests, and evaluation of ECGs.

[6] = biological target: T2, NET (Homo sapiens, UniProt P23975); test: Transporter binding kinetics in vitro at human NET
[7] = biological target: T3, rat native NET (Rattus norvegicus, UniProt Q63380); test: [3H]-NE uptake inhibition in rat cortical synaptosomes; format: biochemical; conditions: Rat; mean (95% CI), 3 to 9 experiments
Text: as §1

[8] = tested on: rat native NET; test: as above; format: biochemical; conditions: rat cortical synaptosomes, uptake
Text: as §1

[9] = biological target: T2, NET; test: [3H]-NE uptake inhibition in HEK293-hNET cells; format: cell-based; parameters: expressed in transfected cells; host or cells: HEK293 (HEK293-hNET), stably transfected
Text: as §1

[10] = biological target: T4, rat native DAT (Rattus norvegicus, UniProt P23977); test: [3H]-DA uptake inhibition in rat striatal synaptosomes; format: biochemical; conditions: mean (95% CI), 3 to 9 experiments, read-out: Neurotransmitter Uptake Inhibition: pIC50 DAT (converted)
T4 construct: at human recombinant and rat native monoamine transporters; from tissue; host or cells: rat striatal synaptosomes
Text: as §1

[11] = parameters: method as in Theravance Biopharma US, Inc., data on file; conditions: human; ref Theravance Biopharma US, Inc., data on file; cited from earlier work
[12] = biological target: T5, human recombinant DAT (Homo sapiens, UniProt Q01959); test: [3H]-DA uptake inhibition in hDAT cells; format: cell-based; conditions: mean (95% CI), 3 to 9 experiments, read-out: Neurotransmitter Uptake Inhibition: pIC50 DAT (converted)
T5 construct: expressed in transfected cells; 'hDAT cells' for uptake
Text: as §1

[13] = biological target: T3, rat native NET; test: [3H]-nisoxetine binding, rat cortical membranes; parameters: at human recombinant and rat native monoamine transporters; from tissue; conditions: mean (95% CI), 3 to 9 experiments, read-out: Transporter Binding: pKi NET (converted)
Text: as §1

T2 sequence (P23975 whole entry): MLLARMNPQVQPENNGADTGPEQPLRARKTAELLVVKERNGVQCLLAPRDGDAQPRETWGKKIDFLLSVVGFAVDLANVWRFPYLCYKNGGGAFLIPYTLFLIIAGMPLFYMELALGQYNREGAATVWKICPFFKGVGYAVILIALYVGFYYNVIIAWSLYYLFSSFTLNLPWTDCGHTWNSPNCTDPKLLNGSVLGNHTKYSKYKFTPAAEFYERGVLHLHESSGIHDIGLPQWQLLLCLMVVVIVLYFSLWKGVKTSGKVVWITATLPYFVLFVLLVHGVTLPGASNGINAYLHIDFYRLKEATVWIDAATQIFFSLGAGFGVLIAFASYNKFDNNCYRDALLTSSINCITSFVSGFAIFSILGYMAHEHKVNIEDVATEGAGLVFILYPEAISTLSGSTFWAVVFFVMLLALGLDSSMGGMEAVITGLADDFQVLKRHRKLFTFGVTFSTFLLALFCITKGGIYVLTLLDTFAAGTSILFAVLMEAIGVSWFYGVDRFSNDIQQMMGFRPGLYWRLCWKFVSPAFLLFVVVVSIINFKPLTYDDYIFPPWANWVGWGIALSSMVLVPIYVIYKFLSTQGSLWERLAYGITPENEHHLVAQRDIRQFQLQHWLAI
T3 sequence (Q63380 1-617): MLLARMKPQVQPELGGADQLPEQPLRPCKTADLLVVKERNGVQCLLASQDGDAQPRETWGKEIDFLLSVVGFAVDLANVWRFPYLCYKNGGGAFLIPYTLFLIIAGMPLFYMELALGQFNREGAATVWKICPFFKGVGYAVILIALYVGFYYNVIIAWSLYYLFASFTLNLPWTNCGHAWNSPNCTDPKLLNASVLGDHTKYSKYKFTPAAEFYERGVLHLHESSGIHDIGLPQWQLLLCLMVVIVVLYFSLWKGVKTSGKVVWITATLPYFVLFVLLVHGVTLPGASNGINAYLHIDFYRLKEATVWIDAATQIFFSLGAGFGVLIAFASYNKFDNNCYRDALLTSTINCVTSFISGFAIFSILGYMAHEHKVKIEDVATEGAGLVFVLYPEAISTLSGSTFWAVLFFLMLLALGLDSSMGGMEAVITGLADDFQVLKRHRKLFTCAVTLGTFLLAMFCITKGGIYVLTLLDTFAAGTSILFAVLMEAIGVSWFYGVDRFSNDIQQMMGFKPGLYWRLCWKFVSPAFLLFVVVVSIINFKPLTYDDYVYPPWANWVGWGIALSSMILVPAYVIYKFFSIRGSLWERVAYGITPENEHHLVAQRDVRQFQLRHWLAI
T5 sequence (Q01959 whole entry): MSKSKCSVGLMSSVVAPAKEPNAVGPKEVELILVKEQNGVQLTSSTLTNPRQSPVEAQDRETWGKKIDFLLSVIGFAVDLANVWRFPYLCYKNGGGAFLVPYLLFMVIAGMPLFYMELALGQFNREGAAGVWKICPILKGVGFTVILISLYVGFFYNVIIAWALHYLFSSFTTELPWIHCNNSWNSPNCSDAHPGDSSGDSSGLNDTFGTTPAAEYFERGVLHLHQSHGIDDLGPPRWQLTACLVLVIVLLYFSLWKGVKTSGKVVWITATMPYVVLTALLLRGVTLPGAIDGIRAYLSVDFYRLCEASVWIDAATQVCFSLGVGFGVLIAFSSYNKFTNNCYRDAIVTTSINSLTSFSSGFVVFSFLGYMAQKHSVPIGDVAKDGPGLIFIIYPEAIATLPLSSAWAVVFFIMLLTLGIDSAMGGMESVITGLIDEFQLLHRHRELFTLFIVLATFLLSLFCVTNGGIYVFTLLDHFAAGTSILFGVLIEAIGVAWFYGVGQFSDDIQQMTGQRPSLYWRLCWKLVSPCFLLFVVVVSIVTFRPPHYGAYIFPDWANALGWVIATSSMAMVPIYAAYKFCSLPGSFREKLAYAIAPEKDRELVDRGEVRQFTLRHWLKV
T4 sequence (P23977 whole entry): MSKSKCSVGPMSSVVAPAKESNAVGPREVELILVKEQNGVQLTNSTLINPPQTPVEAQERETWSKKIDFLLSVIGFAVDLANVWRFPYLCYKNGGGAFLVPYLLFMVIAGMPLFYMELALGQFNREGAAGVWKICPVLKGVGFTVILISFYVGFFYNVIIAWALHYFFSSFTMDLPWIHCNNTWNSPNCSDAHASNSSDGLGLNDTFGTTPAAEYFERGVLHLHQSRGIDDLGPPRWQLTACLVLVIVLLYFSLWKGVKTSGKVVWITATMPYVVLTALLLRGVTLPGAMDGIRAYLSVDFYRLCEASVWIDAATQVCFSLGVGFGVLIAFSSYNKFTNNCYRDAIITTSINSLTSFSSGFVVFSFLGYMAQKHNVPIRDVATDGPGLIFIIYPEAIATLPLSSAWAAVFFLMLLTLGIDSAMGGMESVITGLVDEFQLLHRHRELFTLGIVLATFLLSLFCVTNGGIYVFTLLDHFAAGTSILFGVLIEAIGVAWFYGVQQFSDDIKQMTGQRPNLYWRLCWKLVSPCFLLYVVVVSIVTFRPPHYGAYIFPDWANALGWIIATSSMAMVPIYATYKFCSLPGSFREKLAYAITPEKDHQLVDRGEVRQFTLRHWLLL
T1 sequence (P31652 whole entry): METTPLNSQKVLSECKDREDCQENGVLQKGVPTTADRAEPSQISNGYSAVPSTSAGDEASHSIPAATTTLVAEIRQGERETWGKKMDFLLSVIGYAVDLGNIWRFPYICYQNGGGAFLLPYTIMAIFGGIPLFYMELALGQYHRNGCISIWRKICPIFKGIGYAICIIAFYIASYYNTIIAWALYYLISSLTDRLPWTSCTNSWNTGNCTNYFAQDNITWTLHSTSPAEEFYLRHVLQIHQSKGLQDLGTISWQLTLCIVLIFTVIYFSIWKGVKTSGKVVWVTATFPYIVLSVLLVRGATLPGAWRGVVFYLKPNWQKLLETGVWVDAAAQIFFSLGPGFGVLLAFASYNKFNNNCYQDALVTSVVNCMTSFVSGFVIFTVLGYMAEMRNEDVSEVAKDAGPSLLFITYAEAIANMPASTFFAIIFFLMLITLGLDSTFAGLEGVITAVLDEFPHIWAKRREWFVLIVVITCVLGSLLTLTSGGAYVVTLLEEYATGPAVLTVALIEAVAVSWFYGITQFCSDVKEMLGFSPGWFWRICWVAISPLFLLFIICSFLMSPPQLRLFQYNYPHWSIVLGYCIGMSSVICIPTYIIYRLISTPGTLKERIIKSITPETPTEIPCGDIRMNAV

## Fc1cc(F)c(OCc2ccccc2C2CCNCC2)c(F)c1 [TD-9855, 4-[2-(2,4,6-trifluorophenoxymethyl)phenyl]piperidine]
[1]
  P-gp substrate status: non-P-gp substrate
[2]
  K01, first-order absorption rate constant: 0.777 (108) hr^-1
  V/F: 54.8 (66) L/kg
  k el: 8.86e-05 s⁻¹
[3]
  Ki: 3.16 nM
[4]; ascending single dose studies, ref Theravance Biopharma US, Inc.
  Tmax: 6 to 12 h
[4]; ref Theravance Biopharma US, Inc.
  pharmacokinetic (plasma) half-life: 30 to 40 h
[4]; ref Theravance
  accumulation in plasma after repeated administration: 3- to 4 fold
[5]
  clinical laboratory values, physical examination, vital signs, ECG: No clinically significant abnormalities
  deaths and adverse events: No deaths, severe AEs, or AEs occurred
  overall tolerability: well tolerated
[6]; read-out: association rate constant at NET (converted)
  kon: 917000 M⁻¹ s⁻¹
[6]; read-out: dissociation rate constant at NET (converted)
  koff: 0.00115 s⁻¹
[7]
  Neurotransmitter Uptake Inhibition: pIC50 NET: 8.9 (8.6, 9.1)
[8]
  functional selectivity for NET over SERT: 10 fold
[9]; human transporters, neurotransmitter uptake
  selectivity for inhibition of NET over SERT: 4 fold
[9]; uptake in vitro, human and rat transporters
  inhibitory selectivity for NE: 4- to 10 fold
[10]
  IC50: 126 nM
[11]
  plasma protein binding: 79.1%
[12]
  IC50: 158 nM
[13]
  Ki: 2 nM

From publication PMC4368888, “Preclinical to Clinical Translation of CNS Transporter Occupancy of TD-9855, a Novel Norepinephrine and Serotonin Reuptake Inhibitor” (International Journal of Neuropsychopharmacology, 2015)
